Data published in patent US20250387388A1, “COMPOUND AS TRK INHIBITOR AND/OR RET INHIBITOR AND USE THEREOF” (Medinno Pharmaceutical Technology (Zhuhai) Co., Ltd., priority 2022, published 2025).
Read-outs that look alike come from different tables or passages of the source.

What was measured:
[1] = system: adipocytes; assay: Lipolysis in vitro in adipocytes; format: cell-based, C57BL/6 mouse
Experimental: Newly extracted neonatal C57BL/6 mouse skin fibroblasts (specific operational steps can be found in the literature: Cell Reports (2023)/doi: 10.1016/j.celrep.2023.112647) were plated and cultured in petri dishes until the cell density reached the highest and contact inhibition. Differentiation medium (DMEM+10% FBS+1× antibiotic; specific formula can be found in the literature: Cell Reports (2023)/doi: 10.1016/j.celrep.2023.112647) was then added to induce the generation of new adipocytes. […] The control group received an equal volume of DMSO. The transformation of adipocytes was observed using a Leica inverted phase contrast microscope.

[2] = system: atopic dermatitis/eczema in mice; assay: Atopic dermatitis/eczema model in mice (dust mite extract + SEB); format: in vivo; conditions: for Number of Scratch Incidents (±SE) / Scratch Duration (±SE) / Skin Erythema, Hemorrhage, Eruption, and Desquamation (Lesion Scoring) (Mean ± SE): Tofacitinib 10 mg/kg
[3] = target: T1, TRKA (Homo sapiens (Human), UniProt P04629); assay: Inhibitory activity on TRKA (ADP-Glo Kinase Assay)
T1 sequence (P04629 33-796 limits assumed): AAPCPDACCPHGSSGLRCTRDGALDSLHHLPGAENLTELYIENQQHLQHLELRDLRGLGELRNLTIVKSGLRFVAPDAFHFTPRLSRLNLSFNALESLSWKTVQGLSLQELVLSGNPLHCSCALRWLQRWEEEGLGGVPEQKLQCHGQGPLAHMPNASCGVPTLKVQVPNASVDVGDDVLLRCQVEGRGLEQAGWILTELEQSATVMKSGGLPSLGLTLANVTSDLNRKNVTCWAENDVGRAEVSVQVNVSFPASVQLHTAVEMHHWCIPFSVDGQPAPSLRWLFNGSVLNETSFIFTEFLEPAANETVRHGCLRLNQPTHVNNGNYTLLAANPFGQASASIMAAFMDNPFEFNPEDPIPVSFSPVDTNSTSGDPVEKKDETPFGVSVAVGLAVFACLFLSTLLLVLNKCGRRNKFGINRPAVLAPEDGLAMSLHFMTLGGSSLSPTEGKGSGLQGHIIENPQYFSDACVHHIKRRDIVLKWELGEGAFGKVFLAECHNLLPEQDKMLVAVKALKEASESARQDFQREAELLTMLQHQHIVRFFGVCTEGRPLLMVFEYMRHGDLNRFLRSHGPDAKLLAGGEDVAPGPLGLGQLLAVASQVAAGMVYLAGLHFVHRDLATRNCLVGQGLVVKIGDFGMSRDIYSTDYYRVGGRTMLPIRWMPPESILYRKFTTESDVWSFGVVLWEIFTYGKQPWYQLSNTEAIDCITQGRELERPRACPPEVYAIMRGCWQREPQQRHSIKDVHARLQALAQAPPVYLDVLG

[4] = target: TRKC (Homo sapiens (Human), UniProt Q16288); assay: Inhibitory activity on TRKC (ADP-Glo Kinase Assay)
Chain of TRKC (Q16288 32-839): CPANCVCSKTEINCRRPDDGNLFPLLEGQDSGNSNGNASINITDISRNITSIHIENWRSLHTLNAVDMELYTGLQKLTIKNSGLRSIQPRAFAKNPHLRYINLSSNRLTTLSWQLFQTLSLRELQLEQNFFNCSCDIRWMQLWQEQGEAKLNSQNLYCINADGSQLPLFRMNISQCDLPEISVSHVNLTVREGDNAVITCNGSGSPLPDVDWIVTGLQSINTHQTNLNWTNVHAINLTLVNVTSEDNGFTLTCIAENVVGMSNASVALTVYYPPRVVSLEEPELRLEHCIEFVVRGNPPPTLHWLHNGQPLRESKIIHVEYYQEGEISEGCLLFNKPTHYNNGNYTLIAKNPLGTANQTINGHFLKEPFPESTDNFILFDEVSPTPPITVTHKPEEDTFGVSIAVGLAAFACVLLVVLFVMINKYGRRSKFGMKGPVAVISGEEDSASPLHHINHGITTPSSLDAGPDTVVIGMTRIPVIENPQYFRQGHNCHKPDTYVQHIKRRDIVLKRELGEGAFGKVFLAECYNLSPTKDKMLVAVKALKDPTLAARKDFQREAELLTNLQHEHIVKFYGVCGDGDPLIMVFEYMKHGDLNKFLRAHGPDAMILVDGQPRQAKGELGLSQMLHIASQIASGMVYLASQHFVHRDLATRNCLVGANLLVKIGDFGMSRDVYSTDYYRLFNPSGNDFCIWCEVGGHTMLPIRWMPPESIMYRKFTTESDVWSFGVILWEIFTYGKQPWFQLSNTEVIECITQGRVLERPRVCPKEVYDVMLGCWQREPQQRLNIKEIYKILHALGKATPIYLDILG

[5] = target: RET (Homo sapiens (Human), UniProt P07949); assay: Inhibitory activity on RET kinase (HTRF KinEASE-TK); format: biochemical; conditions: ATP 16 μM
Chain of RET (P07949 29-1114): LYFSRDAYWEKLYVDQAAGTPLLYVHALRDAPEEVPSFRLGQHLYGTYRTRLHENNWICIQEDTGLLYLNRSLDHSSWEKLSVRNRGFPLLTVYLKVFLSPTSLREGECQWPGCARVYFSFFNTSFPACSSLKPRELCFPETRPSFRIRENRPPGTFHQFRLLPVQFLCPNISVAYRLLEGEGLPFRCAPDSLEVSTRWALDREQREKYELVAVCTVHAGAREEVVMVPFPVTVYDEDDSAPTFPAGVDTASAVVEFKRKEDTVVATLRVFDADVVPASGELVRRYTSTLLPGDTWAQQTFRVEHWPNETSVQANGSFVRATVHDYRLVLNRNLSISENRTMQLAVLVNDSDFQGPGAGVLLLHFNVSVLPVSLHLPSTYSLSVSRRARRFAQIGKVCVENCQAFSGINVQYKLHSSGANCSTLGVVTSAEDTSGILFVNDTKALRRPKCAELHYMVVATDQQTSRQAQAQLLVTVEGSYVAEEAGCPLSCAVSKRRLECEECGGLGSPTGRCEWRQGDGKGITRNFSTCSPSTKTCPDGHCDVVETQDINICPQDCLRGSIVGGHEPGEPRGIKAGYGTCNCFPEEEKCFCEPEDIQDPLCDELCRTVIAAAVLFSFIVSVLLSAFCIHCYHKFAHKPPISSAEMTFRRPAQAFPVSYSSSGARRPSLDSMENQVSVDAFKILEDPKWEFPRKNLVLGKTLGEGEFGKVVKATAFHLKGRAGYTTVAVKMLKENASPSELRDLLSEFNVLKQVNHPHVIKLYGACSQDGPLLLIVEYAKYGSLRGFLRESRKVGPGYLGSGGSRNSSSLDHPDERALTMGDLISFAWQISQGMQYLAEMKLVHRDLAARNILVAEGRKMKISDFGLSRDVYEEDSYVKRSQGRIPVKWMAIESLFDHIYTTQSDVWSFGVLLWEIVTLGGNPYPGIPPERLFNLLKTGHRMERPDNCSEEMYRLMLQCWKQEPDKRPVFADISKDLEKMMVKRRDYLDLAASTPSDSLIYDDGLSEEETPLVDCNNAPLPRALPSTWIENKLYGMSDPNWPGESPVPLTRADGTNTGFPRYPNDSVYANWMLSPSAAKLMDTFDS
Text: 3) Formulate 2.5× kinase with 1× kinase reaction buffer.

[6] = target: TRKB (Homo sapiens (Human), UniProt Q16620); assay: Inhibitory activity on TRKB (ADP-Glo Kinase Assay)
Chain of TRKB (Q16620 32-822): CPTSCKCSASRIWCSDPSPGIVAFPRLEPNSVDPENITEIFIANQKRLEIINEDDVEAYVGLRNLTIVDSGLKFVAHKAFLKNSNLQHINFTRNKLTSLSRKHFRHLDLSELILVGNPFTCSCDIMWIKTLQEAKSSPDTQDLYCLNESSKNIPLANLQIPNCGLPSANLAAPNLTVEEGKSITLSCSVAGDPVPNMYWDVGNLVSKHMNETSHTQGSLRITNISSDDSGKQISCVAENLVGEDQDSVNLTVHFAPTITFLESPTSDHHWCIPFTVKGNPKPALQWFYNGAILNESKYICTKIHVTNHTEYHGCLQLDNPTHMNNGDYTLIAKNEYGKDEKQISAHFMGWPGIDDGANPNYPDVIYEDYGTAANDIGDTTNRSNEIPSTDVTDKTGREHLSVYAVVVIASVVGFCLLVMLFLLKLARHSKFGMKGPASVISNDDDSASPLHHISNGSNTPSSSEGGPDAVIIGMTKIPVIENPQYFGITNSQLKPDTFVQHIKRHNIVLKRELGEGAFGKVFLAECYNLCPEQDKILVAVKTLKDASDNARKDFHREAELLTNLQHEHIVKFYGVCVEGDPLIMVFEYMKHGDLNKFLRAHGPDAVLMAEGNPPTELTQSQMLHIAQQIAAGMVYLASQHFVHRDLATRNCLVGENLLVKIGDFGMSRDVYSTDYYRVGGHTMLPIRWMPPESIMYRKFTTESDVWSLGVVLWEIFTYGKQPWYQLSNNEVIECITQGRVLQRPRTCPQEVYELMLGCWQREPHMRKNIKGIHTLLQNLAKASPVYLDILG

[7] = system: allergic rhinitis model in mice; assay: Allergic rhinitis model in mice (OVA); format: in vivo, BALB/C mice; conditions: for Rhinitis behavioral scoring: 7-day treatment, MDI-1233 10 mg/kg, MDI-1228 3 mg/kg, fluticasone propionate positive control
Experimental: 42-49 day-old BALB/C mice (Manufacturer: Liaoning Changsheng Biotechnology Co., Ltd., License Number: SCXK(therapeutic)2015-0001), both male and female, were reared under conventional diet, at a temperature of 20 to 26° C., and a humidity of 40% to 70%. Animal grouping and modeling: • 1. Blank control group (no treatment) • 2. Allergic rhinitis group (vehicle treatment: saline containing 0.2% Tween 80) • 3. Allergic rhinitis+compound MDI-1233: 1 mg/kg • 4. Allergic rhinitis+compound MDI-1233: 3 mg/kg • 5. Allergic rhinitis+compound MDI-1233: 10 mg/kg • 6. Allergic rhinitis+compound MDI-1228: 3 mg/kg • 7. Allergic rhinitis+compound MDI-1288: 3 mg/kg • 8. Allergic rhinitis+positive control group (Fluticasone propionate, GlaxoSmithKline, E88D
The preparation of an AR model in mice involved sensitizing and challenging BALB/c mice with ovalbumin (OVA) to simulate an acute symptoms caused by natural exposure to an allergen. The experimental animals were weighed and separated by gender. Sensitization was performed on days 1, 5, 9, and 12. From day 13, a daily challenge was carried out for 7 consecutive days. After the last challenge, behavior of the mice was observed and scored. The sensitization method involved intraperitoneal injection of an OVA (Sigma, A5503-1G) suspension in 50 μg/ml in which the OVA suspension was prepared by dissolving 500 μg of ovalbumin and 50 mg of AL(OH)3 (CAS 21645-51-2) into 10 ml of normal saline, pH 7.4, with 200 μl injected per mouse. […] On day 12, a single nasal challenge with 10% OVA was performed (PBS was used for the control group). Scoring was conducted according to the table below, using a superposition method to calculate the total score. A total score greater than 5 was considered as successful. Subsequent experiments were conducted after the modeling was deemed successful.
From day 13, compound administration and challenge were conducted. The compound administration method involved calculating the nasal drops volume according to the mouse's body weight and group requirements, and dissolving the compounds MDI-1233, MDI-1228, MDI-1288 into normal saline containing 0.2% Tween 80 at specific concentrations. The administration was given 30 minutes before the challenge, twice a day. The positive control treatment involved administering nasal drop once (10 μl per side) 30 minutes before OVA nasal stimulation, twice a day. Thirty minutes after the second drug administration, a 10% OVA challenge was conducted, and the amount of nasal discharge, sneezing, and nose scratching were observed and recorded within 30 minutes after each challenge and then scored. The control group was treated with normal saline nasal drops.
After the rhinitis modeling was completed and the scores were stable, mice of each group were anesthetized and sacrificed after a 20-day scoring. Samples were collected, and peripheral serum was obtained by collecting whole blood, and standing it at room temperature for 1 hour and then centrifuging it to collect the supernatant for ELISA detection; nasal mucosa was taken for HE staining (fixed with 10% formalin); and the supernatant of nasal lavage fluid was taken for ELISA detection.
(1) HE Staining: The tissue was rinsed with running water for several hours, dehydrated through a series of ethanol solutions (70%, 80%, 90%), and then treated with a mixture of pure alcohol and xylene for 15 minutes, followed by xylene I for 15 minutes and xylene I1 for 15 minutes (until transparent). The tissue was then placed in a mixture of xylene and paraffin at a volume ratio of 1:1 for 15 minutes, followed by immersion with paraffin I and paraffin II each for 50-60 minutes. The tissue was embedded in paraffin and sectioned, and the sections were spreaded, dried, dewaxed and hydrated in distilled water. […]

[8] = target: JAK3 (Homo sapiens (Human), UniProt P52333); conditions: reported; cited from earlier work
Chain of JAK3 (P52333 whole entry, species assumed): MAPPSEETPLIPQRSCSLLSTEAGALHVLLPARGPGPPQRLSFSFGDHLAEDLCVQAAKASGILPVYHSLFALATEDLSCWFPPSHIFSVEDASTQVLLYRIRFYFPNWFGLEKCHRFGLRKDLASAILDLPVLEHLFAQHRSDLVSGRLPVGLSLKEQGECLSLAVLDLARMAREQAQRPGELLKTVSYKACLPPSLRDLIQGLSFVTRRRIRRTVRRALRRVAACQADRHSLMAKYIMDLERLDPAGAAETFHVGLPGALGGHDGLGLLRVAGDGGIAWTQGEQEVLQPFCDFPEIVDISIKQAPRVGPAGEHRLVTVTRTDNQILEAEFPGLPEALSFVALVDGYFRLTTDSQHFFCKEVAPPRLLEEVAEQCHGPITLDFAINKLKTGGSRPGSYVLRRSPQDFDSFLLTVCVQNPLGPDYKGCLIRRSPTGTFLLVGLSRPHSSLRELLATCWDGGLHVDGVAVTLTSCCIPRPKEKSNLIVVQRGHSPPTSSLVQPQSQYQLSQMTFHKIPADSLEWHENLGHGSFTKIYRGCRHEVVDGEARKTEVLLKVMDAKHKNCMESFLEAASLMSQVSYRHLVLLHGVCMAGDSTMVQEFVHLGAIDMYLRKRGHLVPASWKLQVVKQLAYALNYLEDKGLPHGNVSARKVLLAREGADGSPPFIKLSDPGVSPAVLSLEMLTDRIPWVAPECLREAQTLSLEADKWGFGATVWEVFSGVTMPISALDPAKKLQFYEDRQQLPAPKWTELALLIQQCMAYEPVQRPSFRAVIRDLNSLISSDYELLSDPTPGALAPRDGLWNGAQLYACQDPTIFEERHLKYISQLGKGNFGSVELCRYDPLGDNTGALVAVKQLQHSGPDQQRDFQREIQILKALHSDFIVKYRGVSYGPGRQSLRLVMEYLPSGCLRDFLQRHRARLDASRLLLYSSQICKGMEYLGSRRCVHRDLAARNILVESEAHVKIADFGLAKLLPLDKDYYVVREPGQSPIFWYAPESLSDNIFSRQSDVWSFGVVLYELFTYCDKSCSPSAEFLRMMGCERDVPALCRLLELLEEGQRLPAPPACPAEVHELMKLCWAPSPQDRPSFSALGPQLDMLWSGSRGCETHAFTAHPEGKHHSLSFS

[9] = target: T1, TRKA; conditions: reported; cited from earlier work
[10] = system: ovalbumin-induced asthma model in mice; assay: Ovalbumin-induced asthma model in mice; format: in vivo, Balb/c mice; conditions: nasal administration BID 5 days: MDI-1228 3 mg/kg, MDI-1288 3 mg/kg, MDI-1233 1, 3, 10 mg/kg
Experimental: After 7 days of acclimatization, animals were randomly grouped based on their body weight. The experiment was divided into 8 groups, with 8 mice in each group, as detailed in the table below.
• Preparation of Immunogen: Weigh an appropriate amount of OVA, to which an appropriate amount of PBS was added, to achieve a final concentration of 0.1 mg/ml. Then, an equal volume of aluminum adjuvant was added, and the resulting mixture was mixed well, and stored at 4° C., which was prepared before use. • Preparation of Sensitizer (5% OVA): Weigh an appropriate amount of OVA, to which an appropriate amount of PBS was added, to achieve a final concentration of 5%. The resulting mixture was mixed well, and store it at 4° C. for later use, which was prepared before use. • Preparation of Vehicle: Add 200 μl of Tween 80 to 100 ml of saline, and mix it well. […] Mix it well, and store it at 4° C. for later use. […] Mix it well, and store it at 4° C. for later use. […] Mix it well, and store it at 4° C. for later use. The solution was prepared once every three days.
• Immunization: On days 0, 7, 14, and 21, 200 μl of PBS was injected intraperitoneally for the first group, and 200 μl of (10 μg) OVA/aluminum adjuvant emulsion was injected intraperitoneally for groups 2-8. • Sensitization: From days 28 to 32, the first group of animals was exposed to nebulized PBS in a nebulization box for 20 minutes, and the groups 2-8 were exposed to nebulized 5% OVA in a nebulization box for 20 minutes. And then, they were removed. The sensitization was conducted at 12:30 PM daily. • Administration: The medicine was administrated twice a day at 9 AM and 5 PM via nasal drops. Dexamethasone (Dex) was administered by gavage once a day at 9 AM.
Serum IgE: Blood was collected from the orbits of animals after carbon dioxide euthanasia, and plasma was separated and stored at −40 degrees for plasma IgE detection.
Bronchoalveolar Lavage Fluid (BALF) Cell Count: An appropriate amount of foetal bovine serum was weighted and dissolved in PBS to a final concentration of 1%. After orbital blood collection, the trachea was exposed, and a 1 ml syringe needle was replaced with a mouse gavage needle. 0.8 ml of the lavage fluid was aspirated from the syringe and the lungs were lavaged three times. The lavage fluids were collected, and centrifuged at 1000 rpm for 10 minutes, and the supernatant was collected and stored at −40 degrees Celsius. Cells were resuspended with 1 ml of PBS and counted. 100 ul of centrifuged smear was taken and stained with Diff quick and the number of eosinophils, basophils, lymphocytes and macrophages were recorded.
Bronchoalveolar Lavage Fluid IL-5: Bronchoalveolar lavage fluid was collected to detect IL-5.
Pathological scoring criteria were: • A) 0 points: No lymphocyte infiltration; • B) 1 point: Trace lymphocyte infiltration; • C) 2 points: Mild lymphocyte infiltration; • D) 3 points: Moderate lymphocyte infiltration; • E) 4 points: Severe lymphocyte infiltration; • After scoring, the results were calculated and analyzed.

[11] = nasal drops twice a day, MDI-1288 3 mg/kg
[12] = vs. vehicle (model) group, dexamethasone 1 mg/kg gavage QD

C[C@@H]1CCN(C(=O)CC#N)C[C@@H]1N(C)c1ncnc2[nH]ccc12 [Tofacitinib, reference compound]
Lipolysis of differentiated mature adipocytes (phase contrast images) ([1]; 5 μM): does not promote lipolysis
Adipocyte lipolysis in vitro ([1]; summary statement): no similar effect
Number of Scratch Incidents (±SE) ([2]; Day 1): 17.75 ± 0.86
Scratch Duration (±SE) ([2]; Day 1): 278.25 ± 50.09
Skin Erythema, Hemorrhage, Eruption, and Desquamation (Lesion Scoring) (Mean ± SE) ([2]; Day 1): 4.38 ± 0.46
Skin Erythema, Hemorrhage, Eruption, and Desquamation (Lesion Scoring) (Mean ± SE) ([2]; Day 4): 2.63 ± 0.26
Skin Erythema, Hemorrhage, Eruption, and Desquamation (Lesion Scoring) (Mean ± SE) ([2]; Day 7): 2.00 ± 0.33
Number of Scratch Incidents (±SE) ([2]; Day 14): 26.7 ± 1.96
Scratch Duration (±SE) ([2]; Day 14): 217.5 ± 47.85
Skin Erythema, Hemorrhage, Eruption, and Desquamation (Lesion Scoring) (Mean ± SE) ([2]; Day 14): 1.50 ± 0.19
Behavioral analysis (scratch incidents and scratch duration) ([2]; MDI-1228 high-dose (3% gel), tofacitinib 10 mg/kg): did not show significant effects in the behavioral analysis

CCNC(=O)N1Cc2nc(-c3n[nH]c4cc(-c5cc(F)c(O)cc5CC)ccc34)[nH]c2C1 [MDI-247, 2-(6-(2-ethyl-5-fluoro-4-hydroxyphenyl)-1H-indazol-3-yl)-N-ethyl-4,6-dihydropyrrolo[3,4-d]imidazol-5-(1H)-carboxamide]
IC50 ([3]; read-out: TRKA IC50, ATP 5 μM): 10.3 nM
IC50 ([4]; read-out: TRKC IC50, ATP 5 μM): 3.73 nM
IC50 [5]: 8.36 nM
IC50 ([6]; read-out: TRKB IC50, ATP 5 μM): 34.2 nM

CCc1cc(O)c(F)cc1-c1ccc2c(-c3nc4c([nH]3)CN(C(=O)N3CCN(C)CC3)C4)n[nH]c2c1 [MDI-235, (2-(6-(2-ethyl-5-fluoro-4-hydroxyphenyl)-1H-indazol-3-yl)-4,6-dihydropyrrolo[3,4-d]imidazol-5-(1H)-yl)(4-methylpiperazin-1-yl)ketone]
IC50 [3]: 0.57 nM
IC50 [4]: 0.27 nM
IC50 [5]: 0.1 nM
IC50 [6]: 1.39 nM

CCC(=O)O[C@]1(C(=O)SCF)[C@H](C)C[C@H]2[C@@H]3C[C@H](F)C4=CC(=O)C=C[C@]4(C)[C@@]3(F)[C@@H](O)C[C@@]21C [fluticasone propionate, reference compound]
Nasal mucosa pathology (HE staining) ([7]; MDI-1288 3 mg/kg, fluticasone propionate 10 μl per side, nasal drops twice a day): inhibited the progression of rhinitis and promoted repair of cilia on the nasal mucosa
Rhinitis behavioral scoring [7, 11]: significant effects on inhibiting the rhinitis behavior

CCc1cc(O)c(F)cc1-c1ccc2c(-c3nc4c([nH]3)CN(C(=O)N3CCC(O)CC3)C4)n[nH]c2c1 [MDI-245, (2-(6-(2-ethyl-5-fluoro-4-hydroxyphenyl)-1H-indazol-3-yl)-4,6-dihydropyrrolo[3,4-d]imidazol-5(1H)-yl)(4-hydroxylpiperidin-1-yl)ketone]
IC50 [3]: 0.83 nM
IC50 [4]: 0.57 nM
IC50 [5]: 0.99 nM
IC50 [6]: 3.37 nM

Pegcantratinib
Inhibition of JAK3 [8]: capable of inhibiting
Inhibition of TRKA [9]: capable of inhibiting

CCc1cc(O)c(F)cc1-c1ccc2c(-c3nc4c([nH]3)CN(C(=O)C3CC3)C4)n[nH]c2c1 [MDI-1233, cyclopropyl (2-(6-(2-ethyl-5-fluoro-4-hydroxyphenyl)-1H-indazol-3-yl)pyrrolo[3,4-d]imidazol-5(1H,4H,6H)-yl)ketone]
IC50 ([3]; read-out: TRKA IC50, ATP 5 μM): 12.2 nM
Nasal mucosa pathology (HE staining) ([7]; MDI-1233 1 mg/kg and 3 mg/kg nasal drops twice a day): still accompanied by bleeding, inflammatory cell infiltration, cilia shedding
Nasal mucosa pathology (HE staining) ([7]; MDI-1233 10 mg/kg nasal drops twice a day): the nasal mucosal cilia repair effect was significant
Rhinitis behavioral scoring [7, 11]: demonstrated inhibitory effects on the male mouse rhinitis model
Therapeutic effect on the asthma animal model (lung tissue pathological scoring) [10]: good therapeutic effect
Bronchoalveolar lavage fluid IL-5 expression level [10, 12]: could reduce IL-5 expression in all three dosage
Inflammatory cell count in bronchoalveolar lavage fluid [10, 12]: could reduce the Inflammatory Cell Count in all three dosage
Lung tissue inflammatory cell infiltration (HE pathology) [10, 12]: could reduce the lung tissue inflammatory cell infiltration in all three dosage
Serum IgE expression level [10, 12]: could reduce IgE expression in all three dosage
IC50 ([4]; read-out: TRKC IC50, ATP 5 μM): 5.91 nM
IC50 [5]: 4.21 nM
IC50 ([6]; read-out: TRKB IC50, ATP 5 μM): 4.16 nM
